The numbers were not newly measured in article PMC3159817 (Journal of chemical information and modeling, 2011), which cites them from elsewhere.

For data set [1], the system named is HIV-1 reverse transcriptase Y501 mutants.
Data set [2] has as its system RNase H active site of RT with DNA:RNA substrate bound.

With `CC(C)(C)c1ccc(C(=O)NN=Cc2c(O)ccc3ccccc23)cc1` [BBNH, N-(4-tert-butylbenzoyl)-2-hydroxy-1-naphthaldehyde hydrazone], the “effect of Y501 mutations on inhibition” value in data set [1] is reported as “mutations of Y501 result in resistance to inhibition”.
`CC(C)c1ccc(O)c(=O)c(O)c1` [β-thujaplicinol]: the “competition with nucleic acid substrate” value in data set [2] is “appears unable to compete with the intact nucleic acid substrates”.
